Laboratory results published in PubChem BioAssay AID2060494 (Molecular Pharmacology Branch, DTP, NCI, 2025).
pIC50: −log10 of the molar value.

Test system: 435261-313-R-J1-PDC complex spheroid viability
Assay: Anticancer human tumor 435261-313-R-J1-PDC patient-derived colon adenocarcinoma cell line growth inhibition [GQUAD]
Details: for pIC50: curve of first compound; for viability, T/C: stronger effect = lower value
Procedure, shortened: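 Multi-cell-type spheroids of tumor cells with HUVEC and mesenchymal stem cells, treated with drug combinations. Concentrations descend in half-log steps from near clinical Cmax, or from 10 microM where Cmax is unknown; viability read-out.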

[1] = second compound 0.0316 µM, first compound 0.0316 µM
[2] = second compound 0.0316 µM, first compound 0.316 µM
[3] = second compound 0.1 µM, first compound 0.0316 µM
[4] = second compound 0.1 µM, first compound 0.316 µM
[5] = second compound 0.316 µM, first compound 0.0316 µM
[6] = second compound 0.316 µM, first compound 0.316 µM
[7] = second compound 1 µM, first compound 0.0316 µM
[8] = second compound 1 µM, first compound 0.316 µM
[9] = second compound 3.16 µM, first compound 0.0316 µM
[10] = second compound 3.16 µM, first compound 0.316 µM
[11] = second compound 10 µM, first compound 0.0316 µM
[12] = second compound 10 µM, first compound 0.316 µM
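Also: spheroids exposed to the agents for seven days before readout.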
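For viability, T/C in this document: percent of vehicle control viability with DMSO wells as 100%.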

## Cc1cccc(N(C)C(=O)C2C(O)CCN2c2nc(C)cc(C(F)(F)F)c2C#N)c1 (centres undefined) + CN(C)c1ccc(Nc2c3ccc(NC(=O)CCN4CCCC4)cc3nc3cc(NC(=O)CCN4CCCC4)ccc23)cc1
Second compound 0.0316 µM
  pIC50: < 5.00
Second compound 0.1 µM
  pIC50: < 5.00
Second compound 0.316 µM
  pIC50: < 5.00
Second compound 1 µM
  pIC50: < 5.00
Second compound 3.16 µM
  pIC50: < 5.00
Second compound 10 µM
  pIC50: > 7.50
[1]
  viability, T/C: 97.7%
Second compound 0.0316 µM, first compound 0.1 µM
  viability, T/C: 92.1%
[2]
  viability, T/C: 99.7%
Second compound 0.0316 µM, first compound 1 µM
  viability, T/C: 90.6%
Second compound 0.0316 µM, first compound 3.16 µM
  viability, T/C: 96.2%
Second compound 0.0316 µM, first compound 10 µM
  viability, T/C: 123%
[3]
  viability, T/C: 84.8%
Second compound 0.1 µM, first compound 0.1 µM
  viability, T/C: 92.9%
[4]
  viability, T/C: 81.6%
Second compound 0.1 µM, first compound 1 µM
  viability, T/C: 74.5%
Second compound 0.1 µM, first compound 3.16 µM
  viability, T/C: 99%
Second compound 0.1 µM, first compound 10 µM
  viability, T/C: 84.8%
[5]
  viability, T/C: 86.9%
Second compound 0.316 µM, first compound 0.1 µM
  viability, T/C: 94%
[6]
  viability, T/C: 76.8%
Second compound 0.316 µM, first compound 1 µM
  viability, T/C: 90.3%
Second compound 0.316 µM, first compound 3.16 µM
  viability, T/C: 81.7%
Second compound 0.316 µM, first compound 10 µM
  viability, T/C: 73.1%
[7]
  viability, T/C: 79.3%
Second compound 1 µM, first compound 0.1 µM
  viability, T/C: 95.5%
[8]
  viability, T/C: 111%
Second compound 1 µM, first compound 1 µM
  viability, T/C: 93%
Second compound 1 µM, first compound 3.16 µM
  viability, T/C: 70.7%
Second compound 1 µM, first compound 10 µM
  viability, T/C: 86%
[9]
  viability, T/C: 64.3%
Second compound 3.16 µM, first compound 0.1 µM
  viability, T/C: 65.8%
[10]
  viability, T/C: 43.5%
Second compound 3.16 µM, first compound 1 µM
  viability, T/C: 66.4%
Second compound 3.16 µM, first compound 3.16 µM
  viability, T/C: 59.4%
Second compound 3.16 µM, first compound 10 µM
  viability, T/C: 44.8%
[11]
  viability, T/C: 34.9%
Second compound 10 µM, first compound 0.1 µM
  viability, T/C: 56.7%
[12]
  viability, T/C: 47.8%
Second compound 10 µM, first compound 1 µM
  viability, T/C: 34%
Second compound 10 µM, first compound 3.16 µM
  viability, T/C: 37.4%
Second compound 10 µM, first compound 10 µM
  viability, T/C: 20.9%

## Cn1ncnc1[C@H]1c2n[nH]c(=O)c3cc(F)cc(c23)N[C@@H]1c1ccc(F)cc1 + CN(C)c1ccc(Nc2c3ccc(NC(=O)CCN4CCCC4)cc3nc3cc(NC(=O)CCN4CCCC4)ccc23)cc1
Second compound 0.0316 µM
  pIC50: < 6.50
Second compound 0.1 µM
  pIC50: < 6.50
Second compound 0.316 µM
  pIC50: < 6.50
Second compound 1 µM
  pIC50: < 6.50
Second compound 3.16 µM
  pIC50: < 6.50
Second compound 10 µM
  pIC50: > 9.00
Second compound 0.0316 µM, first compound 0.000999 µM
  viability, T/C: 86.2%
Second compound 0.0316 µM, first compound 0.00316 µM
  viability, T/C: 92.3%
Second compound 0.0316 µM, first compound 0.00999 µM
  viability, T/C: 85.7%
[1]
  viability, T/C: 78.1%
Second compound 0.0316 µM, first compound 0.0999 µM
  viability, T/C: 74.2%
[2]
  viability, T/C: 74.6%
Second compound 0.1 µM, first compound 0.000999 µM
  viability, T/C: 97.5%
Second compound 0.1 µM, first compound 0.00316 µM
  viability, T/C: 77.7%
Second compound 0.1 µM, first compound 0.00999 µM
  viability, T/C: 90.6%
[3]
  viability, T/C: 92.1%
Second compound 0.1 µM, first compound 0.0999 µM
  viability, T/C: 88.2%
[4]
  viability, T/C: 76.7%
Second compound 0.316 µM, first compound 0.000999 µM
  viability, T/C: 97.5%
Second compound 0.316 µM, first compound 0.00316 µM
  viability, T/C: 73.2%
Second compound 0.316 µM, first compound 0.00999 µM
  viability, T/C: 84.1%
[5]
  viability, T/C: 79.1%
Second compound 0.316 µM, first compound 0.0999 µM
  viability, T/C: 70.7%
[6]
  viability, T/C: 62.2%
Second compound 1 µM, first compound 0.000999 µM
  viability, T/C: 96.7%
Second compound 1 µM, first compound 0.00316 µM
  viability, T/C: 92.1%
Second compound 1 µM, first compound 0.00999 µM
  viability, T/C: 84.5%
[7]
  viability, T/C: 70.7%
Second compound 1 µM, first compound 0.0999 µM
  viability, T/C: 83.2%
[8]
  viability, T/C: 68.9%
Second compound 3.16 µM, first compound 0.000999 µM
  viability, T/C: 70.4%
Second compound 3.16 µM, first compound 0.00316 µM
  viability, T/C: 77.2%
Second compound 3.16 µM, first compound 0.00999 µM
  viability, T/C: 56.1%
[9]
  viability, T/C: 62.4%
Second compound 3.16 µM, first compound 0.0999 µM
  viability, T/C: 78.9%
[10]
  viability, T/C: 48.2%
Second compound 10 µM, first compound 0.000999 µM
  viability, T/C: 31.3%
Second compound 10 µM, first compound 0.00316 µM
  viability, T/C: 35.4%
Second compound 10 µM, first compound 0.00999 µM
  viability, T/C: 44.2%
[11]
  viability, T/C: 26.7%
Second compound 10 µM, first compound 0.0999 µM
  viability, T/C: 27.4%
[12]
  viability, T/C: 35.3%
